Results reported in patent publication US10953011B2, “Methods of treating virally associated cancers with histone deacetylase inhibitors” (priority 2019, dated 2021).

What was measured:
Assay in all cases: in vitro HDAC inhibition assay (fluorescence)
Type in all cases: biochemical
HDAC1 = HDAC1 (Homo sapiens, UniProt Q13547)
Description: (§1) Briefly, all of the compounds are dissolved in DMSO. A series of dilutions of the compounds were prepared with 10% DMSO in HDAC assay buffer and 5 μl of the dilution was added to a 50 μl reaction so that the final concentration of DMSO is 1% in all of reactions. The compounds were pre-incubated in duplicate at RT for 1 hour in a mixture containing HDAC assay buffer, 5 μg BSA, HDAC enzyme (see Table 7) and a the particular HDACi. After 1 hour, the enzymatic reactions were initiated by the addition of HDAC substrate (BPS Bioscience) to a final concentration of 10 μM or 2 μM. The enzymatic reaction proceeded for 30 minutes at 37° C.
(§2) HDAC activity assays were performed in duplicates at each concentration. The fluorescent intensity data were analyzed using the computer software, Graphpad Prism. In the absence of the compound, the fluorescent intensity (Ft) in each data set was defined as 100% activity. In the absence of HDAC, the fluorescent intensity (Fb) in each data set was defined as 0% activity. The percent activity in the presence of each compound was calculated according to the following equation: % activity=(F−Fb)/(Ft−Fb), where F=the fluorescent intensity in the presence of the compound.
(§3) The values of % activity versus a series of compound concentrations were then plotted using non-linear regression analysis of Sigmoidal dose-response curve generated with the equation Y=B+(T−B)/1+10^((Log EC50-X)×Hill Slope), where Y=percent activity, B=minimum percent activity, T=maximum percent activity, X=logarithm of compound and Hill Slope=slope factor or Hill coefficient. The IC50 value was determined by the concentration causing a half-maximal percent activity.

HDAC11 = target: T1, HDAC11 (Homo sapiens, UniProt Q96DB2)
T1 sequence (Q96DB2 1-347): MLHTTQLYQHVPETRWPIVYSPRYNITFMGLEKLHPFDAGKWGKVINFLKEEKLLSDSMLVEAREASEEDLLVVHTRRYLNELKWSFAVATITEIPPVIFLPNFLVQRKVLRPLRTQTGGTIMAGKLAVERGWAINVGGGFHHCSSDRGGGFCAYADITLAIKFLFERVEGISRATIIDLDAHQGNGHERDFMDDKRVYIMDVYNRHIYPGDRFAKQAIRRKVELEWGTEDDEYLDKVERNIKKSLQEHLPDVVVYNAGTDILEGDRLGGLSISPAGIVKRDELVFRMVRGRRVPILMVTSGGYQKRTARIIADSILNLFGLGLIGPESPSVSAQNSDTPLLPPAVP
Description: as §1, §2, §3

HDAC4 = HDAC4 (Homo sapiens, UniProt P56524); details: for inhibition at 100 µM: read-out: Percentage Inhibition HDAC4
Sequence of HDAC4 (P56524 whole entry): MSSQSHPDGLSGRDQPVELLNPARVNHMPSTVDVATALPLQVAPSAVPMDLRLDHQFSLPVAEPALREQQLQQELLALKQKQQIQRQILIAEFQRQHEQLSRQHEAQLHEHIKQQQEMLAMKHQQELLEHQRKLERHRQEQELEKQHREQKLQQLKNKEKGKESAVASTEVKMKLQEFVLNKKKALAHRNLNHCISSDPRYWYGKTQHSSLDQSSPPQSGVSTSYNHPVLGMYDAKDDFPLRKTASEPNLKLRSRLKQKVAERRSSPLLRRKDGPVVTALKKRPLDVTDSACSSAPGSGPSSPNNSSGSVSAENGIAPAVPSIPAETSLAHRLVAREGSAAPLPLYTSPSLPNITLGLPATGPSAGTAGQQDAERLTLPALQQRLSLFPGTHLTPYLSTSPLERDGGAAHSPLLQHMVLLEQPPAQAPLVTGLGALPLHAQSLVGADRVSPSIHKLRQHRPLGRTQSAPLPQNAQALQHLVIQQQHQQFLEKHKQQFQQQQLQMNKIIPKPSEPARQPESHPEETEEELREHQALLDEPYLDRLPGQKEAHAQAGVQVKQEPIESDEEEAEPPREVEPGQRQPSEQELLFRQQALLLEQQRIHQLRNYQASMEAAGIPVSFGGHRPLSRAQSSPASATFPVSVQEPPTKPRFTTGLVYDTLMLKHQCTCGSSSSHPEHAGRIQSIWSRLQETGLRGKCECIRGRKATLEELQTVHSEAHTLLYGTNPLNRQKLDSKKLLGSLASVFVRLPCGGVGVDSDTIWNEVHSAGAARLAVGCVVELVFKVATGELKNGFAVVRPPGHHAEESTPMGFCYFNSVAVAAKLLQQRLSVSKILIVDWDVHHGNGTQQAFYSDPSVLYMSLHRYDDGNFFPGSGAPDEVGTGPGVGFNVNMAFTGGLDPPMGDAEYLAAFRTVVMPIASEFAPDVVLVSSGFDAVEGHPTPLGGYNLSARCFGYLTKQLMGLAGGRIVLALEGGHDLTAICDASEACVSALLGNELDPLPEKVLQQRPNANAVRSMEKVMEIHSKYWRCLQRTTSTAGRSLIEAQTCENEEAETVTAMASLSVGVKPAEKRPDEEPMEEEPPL
Description: as §1, §2, §3

HDAC5 = HDAC5 (Homo sapiens, UniProt Q9UQL6)
Sequence of HDAC5 (Q9UQL6 whole entry): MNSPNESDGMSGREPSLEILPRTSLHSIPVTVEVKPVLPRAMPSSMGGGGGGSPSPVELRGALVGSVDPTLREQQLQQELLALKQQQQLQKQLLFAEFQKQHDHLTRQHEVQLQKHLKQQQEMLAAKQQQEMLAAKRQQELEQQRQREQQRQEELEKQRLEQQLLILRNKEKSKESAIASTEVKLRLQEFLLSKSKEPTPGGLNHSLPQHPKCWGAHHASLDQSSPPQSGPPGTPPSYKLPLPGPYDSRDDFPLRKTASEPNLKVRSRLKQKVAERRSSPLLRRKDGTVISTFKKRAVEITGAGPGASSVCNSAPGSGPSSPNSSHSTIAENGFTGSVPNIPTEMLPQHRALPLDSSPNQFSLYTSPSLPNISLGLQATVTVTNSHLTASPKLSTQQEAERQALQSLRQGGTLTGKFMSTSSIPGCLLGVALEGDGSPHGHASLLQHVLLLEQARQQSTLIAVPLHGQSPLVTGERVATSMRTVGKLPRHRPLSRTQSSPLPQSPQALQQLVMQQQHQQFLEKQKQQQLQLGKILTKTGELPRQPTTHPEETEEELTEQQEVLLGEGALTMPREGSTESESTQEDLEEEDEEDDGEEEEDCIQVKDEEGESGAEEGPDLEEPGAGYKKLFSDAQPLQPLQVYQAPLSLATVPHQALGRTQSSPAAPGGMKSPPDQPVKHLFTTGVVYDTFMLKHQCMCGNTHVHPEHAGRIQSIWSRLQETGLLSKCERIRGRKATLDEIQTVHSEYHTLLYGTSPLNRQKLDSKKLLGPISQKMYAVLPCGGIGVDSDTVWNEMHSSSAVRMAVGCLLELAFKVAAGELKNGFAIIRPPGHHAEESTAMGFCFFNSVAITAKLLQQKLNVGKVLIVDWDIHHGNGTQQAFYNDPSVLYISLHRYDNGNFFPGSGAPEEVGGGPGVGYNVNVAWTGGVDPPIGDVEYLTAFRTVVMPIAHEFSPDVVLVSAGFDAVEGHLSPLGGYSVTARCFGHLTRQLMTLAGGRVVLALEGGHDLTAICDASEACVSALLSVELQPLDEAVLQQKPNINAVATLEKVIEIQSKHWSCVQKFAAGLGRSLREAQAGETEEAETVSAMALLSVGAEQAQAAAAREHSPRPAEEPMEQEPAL
Description: as §1, §2, §3

HDAC7 = target: T2, HDAC7 (Homo sapiens, UniProt Q8WUI4); details: for inhibition at 100 µM: read-out: Percentage Inhibition HDAC7
T2 sequence (Q8WUI4 1-952): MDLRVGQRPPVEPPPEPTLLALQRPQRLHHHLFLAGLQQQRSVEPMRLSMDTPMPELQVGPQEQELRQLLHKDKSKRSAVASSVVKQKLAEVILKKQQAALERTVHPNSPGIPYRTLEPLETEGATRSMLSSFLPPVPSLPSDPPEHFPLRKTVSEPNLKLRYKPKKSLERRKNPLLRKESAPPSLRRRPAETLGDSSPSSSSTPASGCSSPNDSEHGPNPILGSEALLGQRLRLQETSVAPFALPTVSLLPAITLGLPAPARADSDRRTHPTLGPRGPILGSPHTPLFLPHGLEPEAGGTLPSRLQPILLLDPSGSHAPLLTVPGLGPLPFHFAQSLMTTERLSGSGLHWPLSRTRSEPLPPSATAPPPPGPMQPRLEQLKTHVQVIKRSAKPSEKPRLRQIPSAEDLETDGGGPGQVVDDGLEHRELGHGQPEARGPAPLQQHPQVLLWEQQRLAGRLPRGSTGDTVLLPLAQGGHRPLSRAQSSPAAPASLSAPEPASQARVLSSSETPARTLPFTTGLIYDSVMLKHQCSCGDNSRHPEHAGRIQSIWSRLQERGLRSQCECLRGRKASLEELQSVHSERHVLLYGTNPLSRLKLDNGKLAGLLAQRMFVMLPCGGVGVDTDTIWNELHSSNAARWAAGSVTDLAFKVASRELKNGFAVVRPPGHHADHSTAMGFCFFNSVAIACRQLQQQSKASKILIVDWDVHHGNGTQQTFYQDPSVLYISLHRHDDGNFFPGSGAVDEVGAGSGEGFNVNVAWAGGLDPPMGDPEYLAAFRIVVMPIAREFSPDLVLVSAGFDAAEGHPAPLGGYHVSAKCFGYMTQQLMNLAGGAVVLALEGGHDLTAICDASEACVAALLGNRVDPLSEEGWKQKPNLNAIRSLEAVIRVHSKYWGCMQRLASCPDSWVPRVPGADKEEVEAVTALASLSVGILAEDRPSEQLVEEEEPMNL
Description: as §1, §2, §3

HDAC9 = HDAC9 (Homo sapiens, UniProt Q9UKV0); details: for inhibition at 100 µM: read-out: Percentage Inhibition HDAC9
Sequence of HDAC9 (Q9UKV0 whole entry): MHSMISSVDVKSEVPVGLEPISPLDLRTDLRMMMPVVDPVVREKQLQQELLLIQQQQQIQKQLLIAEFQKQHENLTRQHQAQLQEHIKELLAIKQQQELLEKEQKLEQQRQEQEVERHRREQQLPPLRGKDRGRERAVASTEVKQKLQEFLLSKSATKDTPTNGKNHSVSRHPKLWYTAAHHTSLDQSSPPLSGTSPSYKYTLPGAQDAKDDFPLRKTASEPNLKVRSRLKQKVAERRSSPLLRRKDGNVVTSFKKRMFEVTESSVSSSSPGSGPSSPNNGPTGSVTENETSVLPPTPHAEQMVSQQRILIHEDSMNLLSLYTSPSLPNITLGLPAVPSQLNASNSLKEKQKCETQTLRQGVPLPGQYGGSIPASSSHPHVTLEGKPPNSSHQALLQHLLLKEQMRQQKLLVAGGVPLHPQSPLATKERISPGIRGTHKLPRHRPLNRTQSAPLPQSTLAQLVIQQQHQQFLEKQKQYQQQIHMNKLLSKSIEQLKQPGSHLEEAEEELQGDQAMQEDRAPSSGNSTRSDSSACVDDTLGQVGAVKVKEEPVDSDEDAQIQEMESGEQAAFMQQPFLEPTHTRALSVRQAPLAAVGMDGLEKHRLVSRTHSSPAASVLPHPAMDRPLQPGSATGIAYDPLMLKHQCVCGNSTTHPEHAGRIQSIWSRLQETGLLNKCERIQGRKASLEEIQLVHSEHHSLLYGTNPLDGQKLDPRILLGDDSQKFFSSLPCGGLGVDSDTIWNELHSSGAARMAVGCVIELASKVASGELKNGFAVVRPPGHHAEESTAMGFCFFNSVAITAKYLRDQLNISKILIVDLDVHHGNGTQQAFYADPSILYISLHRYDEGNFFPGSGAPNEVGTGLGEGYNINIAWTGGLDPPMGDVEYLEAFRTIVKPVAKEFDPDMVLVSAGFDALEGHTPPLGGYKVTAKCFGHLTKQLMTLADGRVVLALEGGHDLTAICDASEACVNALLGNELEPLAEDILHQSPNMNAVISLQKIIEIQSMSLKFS
Description: as §1, §2, §3

Sequence of HDAC1 (Q13547 whole entry): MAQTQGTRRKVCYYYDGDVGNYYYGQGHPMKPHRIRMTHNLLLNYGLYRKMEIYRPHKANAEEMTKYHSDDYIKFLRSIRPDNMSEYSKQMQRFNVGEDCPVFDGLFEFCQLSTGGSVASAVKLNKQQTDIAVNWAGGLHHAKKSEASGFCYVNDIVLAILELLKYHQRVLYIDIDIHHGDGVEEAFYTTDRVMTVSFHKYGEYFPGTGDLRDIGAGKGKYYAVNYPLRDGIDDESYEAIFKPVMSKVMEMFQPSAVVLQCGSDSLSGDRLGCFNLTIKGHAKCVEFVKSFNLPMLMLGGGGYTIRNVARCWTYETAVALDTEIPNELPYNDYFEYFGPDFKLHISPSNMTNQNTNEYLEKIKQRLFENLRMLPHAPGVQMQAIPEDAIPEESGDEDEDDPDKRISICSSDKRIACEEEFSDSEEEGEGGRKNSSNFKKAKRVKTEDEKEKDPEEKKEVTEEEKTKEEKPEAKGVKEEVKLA

Compound	IC50 (HDAC1) [µM]	IC50 (HDAC11) [µM]	inhibition at 100 µM (HDAC11; read-out: Percentage Inhibition HDAC11) [%]	IC50 (HDAC4) [µM]	inhibition at 100 µM (HDAC4) [%]	IC50 (HDAC5) [µM]	inhibition at 100 µM (HDAC5; read-out: Percentage Inhibition HDAC5) [%]	IC50 (HDAC7) [µM]	inhibition at 100 µM (HDAC7) [%]	IC50 (HDAC9) [µM]	inhibition at 100 µM (HDAC9) [%]
C/C=C1\NC(=O)[C@H]2CSSCC/C=C/[C@H](CC(=O)N[C@H](C(C)C)C(=O)N2)OC(=O)[C@H](C(C)C)NC1=O [FK228, romidepsin]	1.2	> 100	< 17	> 100	< 17	> 100	17	> 100	< 17	> 100	< 17
Nc1ccccc1NC(=O)c1ccc(CNC(=O)OCc2cccnc2)cc1 [MS-275, entinostat]		> 100									
O=C(CCCCCCC(=O)Nc1ccccc1)NO [SAHA, suberanilohydroxamic acid]					34				27		37
